Test [1] relates to SARS-CoV-2 (SARS-CoV-2). Conditions: vero6.
For test [2] the following is noted: a549.
For test [3] the following is noted: calu3.
Test [4] has as its system SARS-CoV-2 (SARS-CoV-2). Conditions: helaace2.
For test [5] the following is noted: helaace2.

Results on 7 compounds are retold here after the COVID Moonshot data (paper PMC7615835).

Where “and” joins values, the source holds several entries; their conditions need not be identical. Equal entries are not always repeated.

As usually defined, the IC90 is the point of the concentration-response curve where the effect stands at 90%. Lower therefore signals an effect from little substance. As a reminder, the IC50 is the midpoint of a concentration-inhibition curve. A low value points to higher potency.

In the test on SARS-CoV-2 (SARS-CoV-2) [1], `NC(=O)CN1Cc2ccc(Cl)cc2C(C(=O)Nc2cncc3ccccc23)C1` (configuration not stated) showed an IC90 of under 0.04 µM.
In turn, `CNC(=O)c1cc2c(NC(=O)C3CCOc4ccc(Cl)cc43)cncc2s1` (configuration not stated) yielded a half-maximal inhibitory concentration (IC50) with SARS-CoV-2 (SARS-CoV-2) [1] of 0.568 µM.
For the compound `O=C1NCC(C(=O)Nc2cncc3ccccc23)c2cc(Cl)ccc21` (configuration not stated), in the test with SARS-CoV-2 (SARS-CoV-2) [1], the IC90 was > 5 µM and 2.28 µM.
In test [2], `O=C(Nc1cncc2ccccc12)C1CCNc2cc(Cl)c(Cl)cc21` (configuration not stated) returned a CC50 of under 0.0229 µM.
On to `Cc1ccncc1NC(=O)Cc1cc(Cl)cc(OC2CC(=O)N2)c1` (configuration not stated), for which the CC50 in test [3] worked out at 63.5 µM.
For the compound `CCC(CC)COC(=O)[C@H](C)NP(=O)(OC[C@H]1O[C@@](C#N)(c2ccc3c(N)ncnn23)[C@H](O)[C@@H]1O)Oc1ccccc1` (stereo in doubt), the IC50 in the test with SARS-CoV-2 (SARS-CoV-2) [4] is 0.24 µM.
In test [5], `O=C(Nc1cncc2ccccc12)C1CN(S(=O)(=O)CC2CNC2)Cc2ccc(Cl)cc21` (configuration not stated) had a CC50 of over 20 µM.
